According to PMC11003488 (Journal of Enzyme Inhibition and Medicinal Chemistry, 2023):

What was measured:
Leukaemia cell lines = assay: NCI-60 SRB growth inhibition, subpanel; type: cell-based, human; settings: Homo sapiens, read-out: GI50 MG-MID
OVCAR-8 = assay: NCI-60 SRB growth inhibition, one-dose and five-dose; type: cell-based; settings: Homo sapiens; for inhibition at 10 µM: OVCAR-8, read-out: percent growth inhibition
NSCLC cell lines = assay: NCI-60 SRB growth inhibition, subpanel; type: cell-based, human; settings: Homo sapiens, read-out: GI50 MG-MID
RPMI-8226 = assay: NCI-60 SRB growth inhibition, one-dose and five-dose; type: cell-based; settings: Homo sapiens; for GI50: RPMI-8226; for inhibition at 10 µM: RPMI-8226, read-out: percent growth inhibition
MDA-MB-231/ATCC = assay: as above; type: cell-based; settings: Homo sapiens, MDA-MB-231
RXF 393 = assay: as above; type: cell-based; settings: Homo sapiens; for GI50: RXF 393; for inhibition at 10 µM: RXF 393, read-out: percent growth inhibition
HL-60(TB) = assay: cells; type: cell-based; settings: Homo sapiens; for GI50: HL-60; for inhibition at 10 µM: HL-60, read-out: percent growth inhibition
Human VEGFR-2 = Human VEGFR-2 (Homo sapiens, UniProt P35968); assay: VEGFR-2 inhibition assay; type: biochemical
Sequence of Human VEGFR-2 (P35968 20-1356): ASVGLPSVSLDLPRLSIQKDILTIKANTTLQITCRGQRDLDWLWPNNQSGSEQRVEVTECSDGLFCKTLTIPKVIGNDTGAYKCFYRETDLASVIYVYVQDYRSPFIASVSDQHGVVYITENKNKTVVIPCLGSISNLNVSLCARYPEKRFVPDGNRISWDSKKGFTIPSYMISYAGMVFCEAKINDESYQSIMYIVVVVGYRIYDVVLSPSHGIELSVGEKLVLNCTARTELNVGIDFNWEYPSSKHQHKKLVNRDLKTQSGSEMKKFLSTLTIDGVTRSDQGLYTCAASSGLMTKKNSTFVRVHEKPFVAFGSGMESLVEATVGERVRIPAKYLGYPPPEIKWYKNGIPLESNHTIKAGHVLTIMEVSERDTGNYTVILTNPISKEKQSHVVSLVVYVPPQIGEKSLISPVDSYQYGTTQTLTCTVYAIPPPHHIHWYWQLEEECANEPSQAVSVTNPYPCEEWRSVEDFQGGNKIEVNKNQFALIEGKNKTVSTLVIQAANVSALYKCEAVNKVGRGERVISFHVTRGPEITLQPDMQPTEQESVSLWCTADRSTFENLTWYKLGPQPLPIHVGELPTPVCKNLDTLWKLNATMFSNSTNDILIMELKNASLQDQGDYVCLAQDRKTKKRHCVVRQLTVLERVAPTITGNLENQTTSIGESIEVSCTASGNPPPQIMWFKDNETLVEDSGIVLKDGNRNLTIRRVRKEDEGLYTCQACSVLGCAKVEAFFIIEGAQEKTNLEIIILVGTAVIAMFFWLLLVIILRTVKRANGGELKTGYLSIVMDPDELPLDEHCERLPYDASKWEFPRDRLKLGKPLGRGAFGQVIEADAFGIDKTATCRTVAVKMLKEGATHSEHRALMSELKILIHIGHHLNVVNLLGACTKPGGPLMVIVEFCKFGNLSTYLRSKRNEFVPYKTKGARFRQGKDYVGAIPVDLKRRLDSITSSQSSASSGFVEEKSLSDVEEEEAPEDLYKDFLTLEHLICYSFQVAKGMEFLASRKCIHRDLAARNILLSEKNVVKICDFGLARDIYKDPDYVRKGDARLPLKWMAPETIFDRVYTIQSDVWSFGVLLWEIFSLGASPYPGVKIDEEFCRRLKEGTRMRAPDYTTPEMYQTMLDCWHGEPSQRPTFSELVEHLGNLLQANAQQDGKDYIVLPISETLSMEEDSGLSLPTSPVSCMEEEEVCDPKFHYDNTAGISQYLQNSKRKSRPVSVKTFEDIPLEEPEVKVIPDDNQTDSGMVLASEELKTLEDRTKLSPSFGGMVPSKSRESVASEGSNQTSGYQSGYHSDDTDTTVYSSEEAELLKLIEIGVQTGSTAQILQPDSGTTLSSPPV

Renal cancer cell lines = assay: NCI-60 SRB growth inhibition, subpanel; type: cell-based, human; settings: Homo sapiens, read-out: GI50 MG-MID
MDA-MB-468 = assay: NCI-60 SRB growth inhibition, one-dose and five-dose; type: cell-based; settings: Homo sapiens; for GI50: MDA-MB-468; for inhibition at 10 µM: MDA-MB-468, read-out: percent growth inhibition
Breast cancer cell lines = assay: NCI-60 SRB growth inhibition, subpanel; type: cell-based, human; settings: Homo sapiens, read-out: GI50 MG-MID
UACC-257 = assay: NCI-60 SRB growth inhibition, one-dose and five-dose; type: cell-based; settings: Homo sapiens; for GI50: UACC-257; for inhibition at 10 µM: UACC-257, read-out: percent growth inhibition
CAKI-1 = assay: as above; type: cell-based; settings: Homo sapiens; for GI50: CAKI-1; for inhibition at 10 µM: CAKI-1, read-out: percent growth inhibition
SR = assay: as above; type: cell-based; settings: Homo sapiens
UO-31 = assay: as above; type: cell-based; settings: Homo sapiens, UO-31
[1] = tested on: Ovarian cancer cell lines; assay: NCI-60 SRB growth inhibition, subpanel; type: cell-based, human; settings: Homo sapiens, read-out: GI50 MG-MID
[2] = Cytotoxicity towards normal fibroblasts, safety index; type: cell-based, human; settings: human, WI-38 normal fibroblast cells
[3] = tested on: WI-38 normal human fibroblast cells; assay: as above; type: cell-based; settings: WI-38 versus cancer cell lines
MDA-MB-435 = assay: NCI-60 SRB growth inhibition, one-dose and five-dose; type: cell-based; settings: Homo sapiens; for GI50: MDA-MB-435; for inhibition at 10 µM: MDA-MB-435, read-out: percent growth inhibition
CNS cancer cell lines = assay: NCI-60 SRB growth inhibition, subpanel; type: cell-based, human; settings: Homo sapiens, read-out: GI50 MG-MID
A549/ATCC = assay: NCI-60 SRB growth inhibition, one-dose and five-dose; type: cell-based; settings: Homo sapiens; for GI50: A549; for inhibition at 10 µM: A549, read-out: percent growth inhibition
[4] = tested on: Prostate cancer cell lines; assay: NCI-60 SRB growth inhibition, subpanel; type: cell-based, human; settings: Homo sapiens, read-out: GI50 MG-MID
SF-295 = assay: NCI-60 SRB growth inhibition, one-dose and five-dose; type: cell-based; settings: Homo sapiens; for GI50: SF-295; for inhibition at 10 µM: SF-295, read-out: percent growth inhibition
Melanoma cell lines = assay: NCI-60 SRB growth inhibition, subpanel; type: cell-based, human; settings: Homo sapiens, read-out: GI50 MG-MID
SNB-19 = assay: NCI-60 SRB growth inhibition, one-dose and five-dose; type: cell-based; settings: Homo sapiens; for GI50: SNB-19; for inhibition at 10 µM: SNB-19, read-out: percent growth inhibition
SW-620 = assay: as above; type: cell-based; settings: Homo sapiens; for GI50: SW-620; for inhibition at 10 µM: SW-620, read-out: percent growth inhibition
MOLT-4 = assay: as above; type: cell-based; settings: Homo sapiens; for GI50: MOLT-4; for inhibition at 10 µM: MOLT-4, read-out: percent growth inhibition
SF-539 = assay: as above; type: cell-based; settings: Homo sapiens; for GI50: SF-539; for inhibition at 10 µM: SF-539, read-out: percent growth inhibition
Colon cancer cell lines = assay: NCI-60 SRB growth inhibition, subpanel; type: cell-based, human; settings: Homo sapiens, read-out: GI50 MG-MID
DU-145 = assay: NCI-60 SRB growth inhibition, one-dose and five-dose; type: cell-based; settings: Homo sapiens; for GI50: DU-145; for inhibition at 10 µM: DU-145, read-out: percent growth inhibition
SN12C = assay: as above; type: cell-based; settings: Homo sapiens; for inhibition at 10 µM: read-out: percent growth inhibition

CC(=O)Nc1ccc(/C=C/C(=O)c2cccc(NCc3csc4ccccc34)c2)cc1 [Compound 5i, (E)-N-(4–(3-(3-((benzo[b]thiophen-3-ylmethyl)amino)phenyl)-3-oxoprop-1-en-1-yl)phenyl) acetamide]
GI50 (Leukaemia cell lines): 2.93 µM | inhibition at 10 µM (OVCAR-8): 131% | GI50 (NSCLC cell lines): 11.2 µM | GI50 (RPMI-8226): 2.56 µM | inhibition at 10 µM (RPMI-8226): 121% | GI50 (MDA-MB-231/ATCC): 3.42 µM | GI50 (RXF 393): 10 µM | inhibition at 10 µM (RXF 393): 93.2% | GI50 (HL-60(TB)): 3.53 µM | inhibition at 10 µM (HL-60(TB)): 123% | IC50 (Human VEGFR-2): 0.66 ± 0.018 µM | GI50 (Renal cancer cell lines): 11.3 µM | GI50 (MDA-MB-468): 4 µM | inhibition at 10 µM (MDA-MB-468): 97.9% | GI50 (Breast cancer cell lines): 3.79 µM | GI50 (UACC-257): 14.2 µM | inhibition at 10 µM (UACC-257): 50.6% | GI50 (CAKI-1): 18.4 µM | inhibition at 10 µM (CAKI-1): 57.7% | GI50 (SR): 2.79 µM | GI50 (UO-31): 5.16 µM | GI50 [1]: 8.28 µM | GI50 at 48 h [2]: > 100 µM | Safety index [3]: >1 | GI50 (MDA-MB-435): 4.37 µM | inhibition at 10 µM (MDA-MB-435): 49.2% | GI50 (CNS cancer cell lines): 6.12 µM | GI50 (A549/ATCC): 17 µM | inhibition at 10 µM (A549/ATCC): 45.8% | GI50 [4]: 5.01 µM | GI50 (SF-295): 11.9 µM | inhibition at 10 µM (SF-295): 73.1% | GI50 (Melanoma cell lines): 8.14 µM | GI50 (SNB-19): 3.76 µM | inhibition at 10 µM (SNB-19): 98% | GI50 (SW-620): 2.6 µM | inhibition at 10 µM (SW-620): 123% | GI50 (MOLT-4): 2.73 µM | inhibition at 10 µM (MOLT-4): 111% | GI50 (SF-539): 2.74 µM | inhibition at 10 µM (SF-539): 171% | GI50 (Colon cancer cell lines): 6.66 µM | GI50 (DU-145): 5.45 µM | inhibition at 10 µM (DU-145): 74.7% | GI50 (SN12C): 3.29 µM | inhibition at 10 µM (SN12C): 93.3%

CC(=O)Nc1ccc(/C=C/C(=O)c2cccc(NCc3ccc(CO)cc3)c2)cc1 [Compound 5j, (E)-N-(4–(3-(3-((4-(hydroxymethyl)benzyl)amino)phenyl)-3-oxoprop-1-en-1-yl)phenyl) acetamide]
GI50 (Leukaemia cell lines): 5.36 µM | GI50 (OVCAR-8; OVCAR-8): 14.8 µM | inhibition at 10 µM (OVCAR-8): 130% | GI50 (NSCLC cell lines): 13.9 µM | GI50 (RPMI-8226): 2.84 µM | inhibition at 10 µM (RPMI-8226): 134% | GI50 (MDA-MB-231/ATCC): 6.79 µM | GI50 (RXF 393): 11.8 µM | inhibition at 10 µM (RXF 393): 190% | GI50 (HL-60(TB)): 11.6 µM | inhibition at 10 µM (HL-60(TB)): 138% | IC50 (Human VEGFR-2): 0.82 ± 0.016 µM | GI50 (Renal cancer cell lines): 13.3 µM | GI50 (MDA-MB-468): 6.27 µM | inhibition at 10 µM (MDA-MB-468): 171% | GI50 (Breast cancer cell lines): 10.1 µM | GI50 (UACC-257): 11.7 µM | inhibition at 10 µM (UACC-257): 135% | GI50 (CAKI-1): 14.8 µM | inhibition at 10 µM (CAKI-1): 134% | GI50 (SR): 2.61 µM | GI50 (UO-31): 10.7 µM | GI50 [1]: 12.4 µM | GI50 at 48 h [2]: > 100 µM | Safety index [3]: >1 | GI50 (MDA-MB-435): 13.8 µM | inhibition at 10 µM (MDA-MB-435): 79.8% | GI50 (CNS cancer cell lines): 10.1 µM | GI50 (A549/ATCC): 17.2 µM | inhibition at 10 µM (A549/ATCC): 34.3% | GI50 [4]: 8.67 µM | GI50 (SF-295): 12.4 µM | inhibition at 10 µM (SF-295): 79.5% | GI50 (Melanoma cell lines): 11.5 µM | GI50 (SNB-19): 10.1 µM | inhibition at 10 µM (SNB-19): 114% | GI50 (SW-620): 4.27 µM | inhibition at 10 µM (SW-620): 157% | GI50 (MOLT-4): 2.85 µM | inhibition at 10 µM (MOLT-4): 120% | GI50 (SF-539): 7.37 µM | inhibition at 10 µM (SF-539): 181% | GI50 (Colon cancer cell lines): 7.35 µM | GI50 (DU-145): 5.03 µM | inhibition at 10 µM (DU-145): 84.8% | inhibition at 10 µM (SN12C): 149%
